# Measurements reported in the Kinase Knowledgebase extract (Sharma et al. 2016).
# pIC50: −log10 of the molar value.
# Molecular target: PIK3CA (human) (UniProt P42336)
# Assay: Assessment of PI3KCA Kinase Activity
# Chain of PIK3CA (human) (P42336 whole entry, looked up): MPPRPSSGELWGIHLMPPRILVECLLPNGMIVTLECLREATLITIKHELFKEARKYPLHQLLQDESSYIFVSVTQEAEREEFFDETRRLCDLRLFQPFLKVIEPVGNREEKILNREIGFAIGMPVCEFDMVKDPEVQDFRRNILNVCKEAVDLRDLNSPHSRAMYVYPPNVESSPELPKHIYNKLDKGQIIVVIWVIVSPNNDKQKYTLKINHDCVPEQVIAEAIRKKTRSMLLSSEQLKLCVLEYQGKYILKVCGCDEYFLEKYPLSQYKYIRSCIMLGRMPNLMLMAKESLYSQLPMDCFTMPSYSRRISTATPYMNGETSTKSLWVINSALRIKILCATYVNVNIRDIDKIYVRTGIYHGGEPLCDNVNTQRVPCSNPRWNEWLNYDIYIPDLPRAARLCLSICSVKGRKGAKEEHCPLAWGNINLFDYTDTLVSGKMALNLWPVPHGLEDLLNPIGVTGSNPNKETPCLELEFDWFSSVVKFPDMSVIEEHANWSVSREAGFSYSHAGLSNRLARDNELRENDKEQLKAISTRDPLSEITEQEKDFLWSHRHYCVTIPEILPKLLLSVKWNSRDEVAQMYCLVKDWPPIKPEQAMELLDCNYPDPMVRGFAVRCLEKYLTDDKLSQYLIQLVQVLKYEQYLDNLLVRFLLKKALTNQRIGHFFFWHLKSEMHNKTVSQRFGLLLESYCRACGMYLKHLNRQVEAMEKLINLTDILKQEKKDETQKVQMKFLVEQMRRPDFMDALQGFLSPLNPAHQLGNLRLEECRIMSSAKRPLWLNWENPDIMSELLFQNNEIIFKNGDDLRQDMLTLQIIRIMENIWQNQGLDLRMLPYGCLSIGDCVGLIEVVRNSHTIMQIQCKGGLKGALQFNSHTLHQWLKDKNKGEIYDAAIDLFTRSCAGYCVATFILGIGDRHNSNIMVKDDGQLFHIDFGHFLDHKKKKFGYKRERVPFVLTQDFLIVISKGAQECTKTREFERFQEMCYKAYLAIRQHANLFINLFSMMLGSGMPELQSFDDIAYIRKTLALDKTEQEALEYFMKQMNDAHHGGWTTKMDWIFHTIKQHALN
row,Compound,pIC50
1,CC(C)(C)OC(=O)Nc1cc(-c2sc(-c3nnc[nH]3)c(-c3ccc(Cl)cc3Cl)c2C#N)ccn1,6.00 to 7.00
2,O=c1ccc2c(-c3nc(-c4ccc(Cl)cc4Cl)c(-c4ncc[nH]4)s3)ccnc2[nH]1,> 7.00
3,Cc1nn2ccccc2c1-c1nc(-c2cccc(F)c2)c(-c2nnc[nH]2)s1,> 7.00
4,CC(=O)Nc1cc(-c2nc(-c3ccc(Cl)cc3Cl)c(-c3ncc[nH]3)s2)ccn1,> 7.00
5,Cc1nn2ccccc2c1-c1nc(-c2cnc3[nH]ccc3c2)c(-c2nc[nH]n2)s1,> 7.00
6,Cc1nn2ccccc2c1-c1nc(-c2cc(C=O)ccc2Cl)c(-c2nnc[nH]2)s1,> 7.00
7,Cc1nn2ccsc2c1-c1nc(OCc2ccccc2)c(-c2nnc[nH]2)s1,> 7.00
8,Cc1nn2ccc(OCCN3CCC(F)CC3)cc2c1-c1nc(-c2ccccc2)c(-c2nc[nH]n2)s1,> 7.00
9,Cc1nn2ccccc2c1-c1nc(C(C)(C)C)c(-c2nnc[nH]2)s1,> 7.00
10,CCCC(=O)Nc1cc(-c2nc(OCC)c(-c3nnc[nH]3)s2)ccn1,6.00 to 7.00
11,CNC(=O)Nc1cc(-c2sc(-c3nnc[nH]3)c(-c3ccc(Cl)cc3Cl)c2C#N)ccn1,> 7.00
12,CC(=O)Nc1cc(-c2nc(-c3cccc(C)c3)c(-c3ncc[nH]3)s2)ccn1,6.00 to 7.00
13,Cc1nn2ccc(OC3CCN(C(=O)CO)CC3)cc2c1-c1nc(-c2ccccc2)c(-c2nnc[nH]2)s1,> 7.00
14,COc1ncccc1-c1nc(-c2ccnc(NC(C)=O)c2)sc1-c1nnc[nH]1,6.00 to 7.00
15,Nc1cc(-c2nc(-c3ccc(Cl)cc3Cl)c(-c3ncc[nH]3)s2)ncn1,6.00 to 7.00
16,Cc1nn2ccc(OCCN3CCCCC3)cc2c1-c1nc(-c2ccccc2)c(-c2nnc[nH]2)s1,> 7.00
17,Cc1nn2ccccc2c1-c1nc(-c2ccccc2OCc2ccccc2)c(-c2nc[nH]n2)s1,6.00 to 7.00
18,Cc1nn2ccccc2c1-c1nc(-c2ccc(N3CCNCC3)nc2)c(-c2nc[nH]n2)s1,6.00 to 7.00
19,CCOc1nc(-c2ccnc(NC(=O)C3CCCC3)c2)sc1-c1nnc[nH]1,6.00 to 7.00
20,Cc1nn2ccccc2c1-c1nc(-c2ccccc2Cl)c(-c2nnc[nH]2)s1,> 7.00
21,COC[C@@H]1CCCN1CCC(=O)Nc1cc(-c2nc(-c3ccccc3)c(-c3nnc[nH]3)s2)ccn1,6.00 to 7.00
22,CC(=O)Nc1cc(-c2nc(Br)c(-c3ncc[nH]3)s2)ccn1,6.00 to 7.00
23,C/C=C/c1nc(-c2c(C)nn3ccccc23)sc1-c1nnc[nH]1,> 7.00
24,N#Cc1c(-c2ccnc(NS(N)(=O)=O)c2)sc(-c2nnc[nH]2)c1-c1ccc(Cl)cc1Cl,6.00 to 7.00

row,Compound,pIC50
1,N#Cc1c(-c2ccnc(N)c2)sc(-c2ncc[nH]2)c1-c1ccc(Cl)cc1Cl,> 7.00
2,CC(=O)Nc1cc(-c2nc(-c3ccc(N(C)C)nc3)c(-c3ncc[nH]3)s2)ccn1,6.00 to 7.00
3,Cc1nn2ccccc2c1-c1nc(-c2ccc(CN)cc2)c(-c2nc[nH]n2)s1,6.00 to 7.00
4,Cc1nn2ccccc2c1-c1nc(C2CCCCC2)c(-c2nnc[nH]2)s1,> 7.00
5,CCOc1nc(-c2ccnc(NC(=O)c3ccc(F)cc3)c2)sc1-c1nnc[nH]1,6.00 to 7.00
6,CC(=O)Nc1cc(-c2nc(-c3cccc4cnccc34)c(-c3ncc[nH]3)s2)ccn1,6.00 to 7.00
7,CC(=O)Nc1cc(-c2sc(-c3nccn3Cc3cccnc3)c(-c3ccc(Cl)cc3Cl)c2C#N)ccn1,6.00 to 7.00
8,Cc1cccc(C)c1-c1nc(-c2c(C)nn3ccccc23)sc1-c1nc[nH]n1,> 7.00
9,Cc1nc2sccn2c1-c1nc(-c2ccccc2)c(-c2nnc[nH]2)s1,> 7.00
10,CCNC(=O)Nc1cc(-c2nc(OCC)c(-c3nc[nH]n3)s2)ccn1,6.00 to 7.00
11,Cc1nn2ccccc2c1-c1nc(-c2cccc(C(F)(F)F)c2)c(-c2nc[nH]n2)s1,6.00 to 7.00
12,CC(C)CC(=O)Nc1cc(-c2sc(-c3ncc[nH]3)c(-c3ccc(Cl)cc3Cl)c2C#N)ccn1,> 7.00
13,O=C(CCSc1ccccc1)Nc1cc(-c2nc(-c3ccccc3)c(-c3nnc[nH]3)s2)ccn1,6.00 to 7.00
14,Cc1nn2ccc(OCCN3CCN(C)C(=O)C3)cc2c1-c1nc(-c2ccccc2)c(-c2nc[nH]n2)s1,> 7.00
15,Cc1nn2ccc(OC3CCNCC3)cc2c1-c1nc(-c2ccccc2)c(-c2nc[nH]n2)s1,> 7.00
16,Cc1nn2ccsc2c1-c1nc(-c2ccccc2)c(-c2nccs2)s1,> 7.00
17,Cc1nn2ccccc2c1-c1nc(-c2ccc[nH]2)c(-c2nc[nH]n2)s1,6.00 to 7.00
18,CC(=O)N1CCN(Cc2ccc3nc(C)c(-c4nc(-c5ccccc5)c(-c5nc[nH]n5)s4)n3c2)CC1,> 7.00
19,CCOc1nc(-c2ccnc(NC(=O)CC(C)C)c2)sc1-c1nnc[nH]1,6.00 to 7.00
20,COC(=O)Nc1cc(-c2cc(-c3ccc(Cl)cc3Cl)c(-c3ncc[nH]3)s2)ccn1,> 7.00
21,Nc1cc(-c2cc(-c3ccc(Cl)cc3Cl)c(-c3ncc[nH]3)s2)ccn1,> 7.00
22,CC(=O)Nc1cc(-c2nc(-c3cc(CO)ccc3Cl)c(-c3ncc[nH]3)s2)ccn1,> 7.00
23,N#Cc1c(-c2ccnc(NC(=O)CCc3ccccc3)c2)sc(-c2nnc[nH]2)c1-c1ccc(Cl)cc1Cl,6.00 to 7.00
24,CC(=O)Nc1cc(-c2nc(-c3ccc(CO)cc3)c(-c3ncc[nH]3)s2)ccn1,6.00 to 7.00

row,Compound,pIC50
1,N#Cc1c(-c2ccnc(NCCO)n2)sc(-c2nnc[nH]2)c1-c1ccc(Cl)cc1Cl,> 7.00
2,Cc1cc(-c2cc(-c3ccc(Cl)cc3Cl)c(-c3ncc[nH]3)s2)ccn1,> 7.00
3,Cc1nc2ccc(CN3CCNCC3)cn2c1-c1nc(-c2ccccc2)c(-c2nnc[nH]2)s1,> 7.00
4,CC(=O)Nc1cc(-c2nc(-c3cn(C)nc3C(F)(F)F)c(-c3ncc[nH]3)s2)ccn1,> 7.00
5,COc1cccc(F)c1-c1nc(-c2c(C)nn3ccc(OCCN4CCN(C)CC4)cc23)sc1-c1nc[nH]n1,> 7.00
6,CNC(=O)Nc1cc(-c2sc(-c3ccn[nH]3)c(-c3ccc(Cl)cc3Cl)c2C#N)ccn1,6.00 to 7.00
7,COC(=O)c1cccc(-c2nc(-c3c(C)nn4ccccc34)sc2-c2nc[nH]n2)c1,6.00 to 7.00
8,CCOc1nc(-c2ccnc(NC(=O)c3ccno3)c2)sc1-c1nnc[nH]1,> 7.00
9,O=C(Nc1cc(-c2nc(-c3ccc(Cl)cc3Cl)c(-c3ncc[nH]3)s2)ccn1)C1CC1,> 7.00
10,Cc1nn2ccc(N3CCOCC3)cc2c1-c1nc(-c2ccccc2)c(-c2nc[nH]n2)s1,> 7.00
11,COCCCNc1cc(-c2sc(-c3nnc[nH]3)c(-c3ccc(Cl)cc3Cl)c2C#N)ccn1,6.00 to 7.00
12,CN(C)CC(=O)Nc1cc(-c2sc(-c3nnc[nH]3)c(-c3ccc(Cl)cc3Cl)c2C#N)ccn1,6.00 to 7.00
13,c1ccc(-c2nc(-c3ccnc4ccsc34)sc2-c2nnc[nH]2)cc1,> 7.00
14,CC(=O)Nc1cc(-c2sc(-c3ccn[nH]3)c(-c3ccc(Cl)cc3Cl)c2C#N)ccn1,> 7.00
15,Cc1nn2ccc(OCCN3CCN(C)CC3)cc2c1-c1nc(-c2ccccc2)c(-c2nc[nH]n2)s1,> 7.00
16,Cc1nn2ccc(OCc3ccc(C(F)(F)F)nc3)cc2c1-c1nc(-c2ccccc2)c(-c2nc[nH]n2)s1,> 7.00
17,Cc1nn2ccsc2c1-c1nc(-c2ccccc2)c(-c2nnn[nH]2)s1,6.00 to 7.00
18,CCOc1nc(-c2ccnc(NC(=O)C(C)C)c2)sc1-c1nnc[nH]1,6.00 to 7.00
19,CNc1cc(-c2sc(-c3nccn3C)c(-c3ccc(Cl)cc3Cl)c2C#N)ccn1,6.00 to 7.00
20,CNCC(=O)Nc1cc(-c2sc(-c3nnc[nH]3)c(-c3ccc(Cl)cc3Cl)c2C#N)ccn1,6.00 to 7.00
21,c1ccc(-c2nc(-c3ccnc4[nH]ccc34)sc2-c2nnc[nH]2)cc1,> 7.00
22,CC(=O)Nc1cc(-c2nc(-c3ccc(Cl)cc3Cl)c(-c3nc(C#N)c[nH]3)s2)ccn1,6.00 to 7.00
23,Clc1ccc(-c2cc(-c3ncnc4[nH]cnc34)sc2-c2ncc[nH]2)c(Cl)c1,6.00 to 7.00
24,CCOc1nc(-c2ccnc(NC(=O)COc3ccccc3)c2)sc1-c1nnc[nH]1,6.00 to 7.00

row,Compound,pIC50
1,COC(=O)Nc1cc(-c2nc(-c3ccc(Cl)cc3Cl)c(-c3nnc(N)[nH]3)s2)ccn1,> 7.00
2,N#Cc1c(-c2ccnc(NCCCO)n2)sc(-c2nnc[nH]2)c1-c1ccc(Cl)cc1Cl,> 7.00
3,CC(=O)Nc1cc(-c2nc(-c3cccc(Cl)c3)c(-c3ncc[nH]3)s2)ccn1,6.00 to 7.00
4,Cc1nn2ccccc2c1-c1nc(-c2c(F)cccc2Cl)c(-c2nc[nH]n2)s1,> 7.00
5,CC(=O)Nc1cc(-c2nc(-c3ccc(Cl)cc3Cl)c(-c3nc(C)c(C)[nH]3)s2)ccn1,6.00 to 7.00
6,CC(=O)Nc1cc(-c2nc(-c3cc(C(=O)N4CCCC4)ccc3F)c(-c3ncc[nH]3)s2)ccn1,6.00 to 7.00
7,Cc1nn2ccsc2c1-c1nc(-c2ccccc2)c(-c2ncc[nH]2)s1,> 7.00
8,N#Cc1c(-c2ccnc(NC(N)=O)c2)sc(-c2ccn[nH]2)c1-c1ccc(Cl)cc1Cl,> 7.00
9,COc1cncc(-c2nc(-c3ccnc(NC(C)=O)c3)sc2-c2ncc[nH]2)c1,6.00 to 7.00
10,CC(=O)Nc1cc(-c2nc(-c3ccc4nonc4c3)c(-c3ncc[nH]3)s2)ccn1,6.00 to 7.00
11,CC(=O)Nc1cc(-c2nc(-c3ccc(Cl)cc3)c(-c3ncc[nH]3)s2)ccn1,6.00 to 7.00
12,Cc1nc2ccc(CN(C)CCN)cn2c1-c1nc(-c2ccccc2)c(-c2nnc[nH]2)s1,> 7.00
13,CCOC(=O)Nc1cc(-c2nc(OCC)c(-c3nc[nH]n3)s2)ccn1,> 7.00
14,N#Cc1c(-c2ccnc(NS(=O)(=O)c3ccccc3)c2)sc(-c2nnc[nH]2)c1-c1ccc(Cl)cc1Cl,6.00 to 7.00
15,Cc1nn2ccccc2c1-c1nc(N(C)c2ccc(Cl)cc2)c(-c2nnc[nH]2)s1,> 7.00
16,Cc1nn2ccc(OCc3ccccc3)cc2c1-c1nc(-c2ccccc2)c(-c2nnc[nH]2)s1,> 7.00
17,CC(=O)Nc1cc(-c2cc(-c3ccc(Cl)cc3Cl)c(-c3ncc[nH]3)s2)ccn1,> 7.00
18,CCOc1nc(-c2ccnc(NC(=O)c3ccco3)c2)sc1-c1nnc[nH]1,6.00 to 7.00
19,Cc1nc2ccc(CNCCN)cn2c1-c1nc(-c2ccccc2)c(-c2nnc[nH]2)s1,> 7.00
20,Cc1nc2ccc(C3CCCCC3)cn2c1-c1nc(-c2ccccc2)c(-c2nc[nH]n2)s1,6.00 to 7.00
21,COc1cccc(F)c1-c1ccc2nc(C)c(-c3nc(-c4ccccc4)c(-c4nc[nH]n4)s3)n2c1,6.00 to 7.00
22,CC(=O)Nc1cc(-c2nc(-c3ccc(Cl)cc3Cl)c(-c3ncc[nH]3)s2)ncn1,> 7.00
23,N#Cc1c(-c2ccnc(NC(=O)C3CCC3)c2)sc(-c2nnc[nH]2)c1-c1ccc(Cl)cc1Cl,6.00 to 7.00
24,O=C(CCN1CCOCC1)Nc1cc(-c2nc(-c3ccccc3)c(-c3nnc[nH]3)s2)ccn1,6.00 to 7.00
